# Test results taken from PubChem BioAssay (NCI).
# Values joined by “and” are separate entries in the source; they are usually repeats but may differ in a detail not shown here. Equal entries are not always repeated.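 These data come from cells grown in 96-well plates and exposed to compound for 48 hours at five concentrations. The concentration for 50% growth inhibition is given as GI50. TGI: concentration producing complete growth inhibition.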
# Key:
# Assay in all cases: NCI-60 cell line screen, 48 h
# [1] = tested on: KM20L2 colon
# [2] = tested on: SR leukemia
# [3] = tested on: KM12 colon
# [4] = tested on: SK-MEL-5 melanoma
# [5] = tested on: DLD-1 colon
# [6] = tested on: RXF 393 renal
# [7] = tested on: COLO 205 colon
# [8] = tested on: SF-295 CNS
# [9] = tested on: M14 melanoma
# [10] = tested on: PC-3 prostate
SMILES,TGI [1],TGI [2],TGI [3],TGI [4],TGI [5],TGI [6],TGI [7],TGI [8],TGI [9],GI50 [1],GI50 [10],TGI [10],GI50 [3],GI50 [4],GI50 [5],GI50 [6],GI50 [7],GI50 [8],GI50 [9],GI50 [2]
O=C(O)C1=C(C(=O)Nc2ccccc2)C2C=CC1C2 (stereo not drawn),> 100 µM,> 100 µM,> 100 µM,> 100 µM,> 100 µM,> 100 µM,> 100 µM,> 100 µM,> 100 µM,,,,,,,,,,,
CN(C)c1ncnc2c1Cc1ccccc1C(=O)N2C,> 100 µM,> 100 µM,> 100 µM,> 100 µM,> 100 µM,> 100 µM,> 100 µM,> 100 µM,> 100 µM,,,,,,,,,,,
O=C(Cc1nc2ccccc2s1)Nc1ccc(Cl)cc1,> 100 µM,> 100 µM,> 100 µM,> 100 µM,> 100 µM,> 100 µM,> 100 µM,> 100 µM,> 100 µM,,,,,,,,,,,
CCN(CC)CC.CCOc1ccc(NC(=O)N=C=[N-])cc1.[CH-]1CCCCC1.[CH-]1CCCCC1.[CH-]1CCCCC1.[Cl-].[Sn+4],0.0505 µM,,0.0429 µM,0.0941 µM,0.0478 µM,0.0336 µM,0.0422 µM,0.149 µM,0.0727 µM,0.0229 µM,0.0596 µM,0.21 µM,0.0161 µM,0.0303 µM,0.018 µM,0.0146 µM,0.0184 µM,0.0521 µM,0.0264 µM,
COc1cccc(NC(=O)C(C)(C)C)c1C=O,> 100 µM,> 100 µM,> 100 µM,> 100 µM,> 100 µM,,> 100 µM,> 100 µM,> 100 µM,,,,,,,,,,,
COc1cc(Br)c(CC2(C#N)c3ccccc3C3C(N2C(=O)c2ccccc2)C3(Cl)Cl)cc1OC (stereo not drawn),> 65.5 µM,> 65.5 µM,> 65.5 µM,> 65.5 µM,> 65.5 µM,> 65.5 µM,> 65.5 µM,,> 65.5 µM,,,,,,,,,,,
CCSC(SCC)c1cc2c(cc1Br)OCO2,64.7 µM,,> 100 µM,38.4 µM,> 100 µM,89.3 µM,59.3 µM,72.1 µM,56.2 µM,,,,,,,,,,,
c1ccc(N=c2snc3scc(-c4ccccc4)n23)cc1,,,> 100 µM,61.9 µM,> 100 µM,> 100 µM,80.6 µM,> 100 µM,96.2 µM,,,,,,,,,,,
CC1=C(C(=O)Nc2ccccc2)C(c2ccc([N+](=O)[O-])cc2)C(C(=O)Nc2ccccc2)=C(C)N1,35.3 µM,45.7 µM,34.8 µM,61.7 µM,> 100 µM,46.2 µM,,> 100 µM,41.8 µM,,,,,,,,,,,
C[C@H](N)C(=O)N[C@@H]1[C@H]2C(=C(O)C[C@@H](O)[C@@H]2O)C(=O)O[C@]1(C)C(Cl)Cl,2.73 µM and 3.23 µM,7.55 µM,1.99 µM and 1.52 µM,0.994 µM and 0.471 µM,1.62 µM and 2.43 µM,0.828 µM and 1.08 µM,0.212 µM and 0.37 µM,1.31 µM,1.49 µM and 0.507 µM,,,3.89 µM and 1.37 µM,0.255 µM,0.228 µM,0.185 µM,,0.13 µM,,0.258 µM,0.255 µM
O=C(NCCO)c1cc2c(cn1)[nH]c1ccccc12,> 100 µM,,> 100 µM,> 100 µM,> 100 µM,> 100 µM,> 100 µM,> 100 µM,> 100 µM,,,,,,,,,,,
Cc1ccc(-n2c3nc(=O)n(C)c(=O)c-3nc3ccccc32)cc1,26.3 µM,,> 100 µM,26.2 µM,> 100 µM,> 100 µM,14.8 µM,46.5 µM,32.7 µM,,,,,,,,,,,
O=C1OC(c2ccccc2)=N/C1=C\c1ccc2ccccc2c1,> 100 µM,,> 100 µM,> 100 µM,> 100 µM,> 100 µM,> 100 µM,,> 100 µM,,,,,,,,,,,
Nc1nc(Cl)cc(NCCCCCNc2cc(Cl)nc(N)n2)n1,> 100 µM,> 100 µM,> 100 µM,> 100 µM,> 100 µM,> 100 µM,> 100 µM,> 100 µM,> 100 µM,,,,,,,,,,,
CCOC(=O)Cc1nc2ccccc2s1,69.1 µM,48.9 µM,> 10 µM,48.5 µM,33.5 µM,35.3 µM,> 100 µM,32.2 µM,31 µM,,,,,,,,,,,
C=CC(=O)N1C/C(=C\c2ccccc2)C(=O)/C(=C/c2ccccc2)C1,3.1 µM,0.935 µM and 5.24 µM,2.4 µM,3.12 µM,1.15 µM,4.43 µM,3.87 µM,5.07 µM,4.58 µM,,,3.91 µM,0.443 µM,,,,,,,0.566 µM
